Results taken from US12291504B2 (University of Pittsburgh—Of the Commonwealth System of …, priority 2018, dated 2025).
Where two headings read alike, the source gives them in different places.

Columns and labels:
[1] = target: T1, SULT1A3 (Homo sapiens, UniProt P0DMM9); assay: SULT1A3 inhibition studies, 1-HP initial-rate fluorescence assay; type: biochemical; set-up: Wild-type and mutant SULT1A3 coding regions were inserted into a pGEX-6P expression vector; N-His/GST/MBP triple-tag (N, cleaved yes); made in house; host or cells: E. coli BL21(DE3); inhibition: dose or concentration left out as unconfirmed; details: for inhibition of SULT1A3 (in words): Ki could not be determined
T1 sequence (P0DMM9 whole entry): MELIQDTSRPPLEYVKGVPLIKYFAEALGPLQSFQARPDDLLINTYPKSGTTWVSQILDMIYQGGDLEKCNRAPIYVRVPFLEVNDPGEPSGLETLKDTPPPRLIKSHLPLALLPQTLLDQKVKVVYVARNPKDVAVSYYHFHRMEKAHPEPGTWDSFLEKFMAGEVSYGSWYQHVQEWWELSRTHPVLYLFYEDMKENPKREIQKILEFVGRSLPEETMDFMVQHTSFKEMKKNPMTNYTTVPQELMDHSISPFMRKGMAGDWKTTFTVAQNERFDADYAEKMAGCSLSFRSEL
Protocol: The initial rates of SULT catalyzed 1-HP sulfonation are plotted as a function of inhibitor concentration, and are normalized relative to [inhibitor]=0. Enzyme activity was monitored by the sulfonation dependent change in 1-HP fluorescence (λex=325 nm, λem=370 nm). Less than 5% of the concentration-limiting substrate converted at the reaction endpoint was consumed during initial-rate measurements. Each point is the average of three independent determinations. Conditions: SULT (20 nM, active sites), PAPS (0.50 mM, 17×Km), 1-HP (5.0 μM, 61×Km), KPO4 (50 mM), pH 7.5, 25±2° C.
(§1) Initial-Rate Studies. Initial-rate parameters for the labeled or mutant SULT1A3 constructs were determined using a previously described 1-HP assay (25). Briefly, reactions were initiated by addition of PAPS (0.50 mM, 17×Km) to a solution containing enzyme (20 nM, active sites), 1-HP (2.0 μM, ˜24×Km), and KPO4 (50 mM), pH 7.5, 25±2° C. Reactions were monitored via fluorescence change associated with the conversion of 1-HP to 1-HP-S (λex=325 nm, λem=370 nm). Keq for the 1-HP sulfonation reaction is −250. Given the reaction conditions outlined above, ≥99% of 1-HP is converted to 1-HP-S, and ˜0.4% of PAPS is converted to PAP at equilibrium. […] Reaction progress curves were analyzed to obtain initial-rate parameters as described previously (26,27).
(§2) Inhibition studies. Inhibition parameters were determined under conditions identical to those described above (see, Initial-Rate Studies) except that [1-HP] was increased to 5.0 μM (˜61×Km) and inhibitor concentration was varied between 0.20-20×Ki. Ki was obtained using a least-squares fit to the following partial inhibition equation (25,28): v=kcat·(Ki+(1/kcat inh)·[I])/(Ki+[I]), where kcat inh is enzyme turnover at saturating substrates and allosteric inhibitor.
as §1, with “(47).” for “(25).”, “˜250.” for “−250.”, “(48,49).” for “(26,27).”
as §2, with “(47,50): V/Vax=(Ki+α·[I])/(Ki+[I]),” for “(25,28): v=kcat·(Ki+(1/kcat inh)·[I])/(Ki+[I]),”, “α” for “kcat inh”, “is percentage of” for “is”, “turnover remaining” for “turnover”

[2] = target: T1, SULT1A3; assay: Equilibrium binding studies, SULT1A3 intrinsic fluorescence titration; set-up: Wild-type and mutant SULT1A3 coding regions were inserted into a pGEX-6P expression vector; N-His/GST/MBP triple-tag (N, cleaved yes); made in house; host or cells: E. coli BL21(DE3)
Protocol: 4-Tam binding affinities were determined in the absence and presence of saturating PAP. Binding was monitored via ligand-induced changes in SULT1A3 intrinsic florescence (λex=290 nm, λem=340 nm). Fluorescence intensities are normalized relative to [4-Tam]=0. Each data-point is the average of two independent determinations. Conditions: SULT (150 nM, active sites), PAP (0 or 0.50 mM), KPO4 (50 mM), pH 7.5, 25±2° C. The line through the data represents the least-squares best fit to a model that assumes a binding stoichiometry of one 4-Tam per subunit.
Equilibrium Binding Studies. In all cases, ligand binding to SULT1A3 was monitored via changes in the intrinsic fluorescence of the enzyme (λex=290 nm, λem=340 nm). Conditions: SULT (50 nM, active sites), KPO4 (50 mM), pH 7.5, 25±2° C. Titrations were performed in triplicate. Data were averaged and least-squares fit using a model that assumes a single binding site per monomer (29-31). Ligand concentration was varied from 0.10-40×Kd.
As is seen in Eq. 6, Kiso and kcat ratios approach equivalence as Kiso becomes >>1. To assess the extent to which this equivalence holds for SULT1A3, Kiso values were determined as described previously (29-33). In short—As nucleotide binds and the cap closes, a pore forms at the acceptor-binding site. The affinity of an acceptor that is too large to pass through the pore is diminished by the presence of nucleotide, which fosters cap closure. At saturating nucleotide, the apparent affinity, Kapp, of such acceptors for the fully cap-closed enzyme is given by Equation 7 (29-33), where Kd is the affinity for the cap-open (nucleotide-free) form of the enzyme. Kapp=Kd×(1+Kiso) (7) Kapp and Kd were obtained by fitting titrations that monitor changes in SULT1A3 intrinsic fluorescence as a function of the concentration of 4-hydroxytamoxifen, a large acceptor (29) (see, FIG. 2). Titrations were performed at 0 and saturating PAP (0.50 mM, 17×Kd).

[3] = target: SULT1A1 (Homo sapiens, UniProt P50225); assay: SULT1A1 inhibition, 1-HP initial-rate assay; type: biochemical; details: ND = inhibition was not detected at 30 μM compound, parentheses one standard error
SULT1A1, sequence (P50225 whole entry): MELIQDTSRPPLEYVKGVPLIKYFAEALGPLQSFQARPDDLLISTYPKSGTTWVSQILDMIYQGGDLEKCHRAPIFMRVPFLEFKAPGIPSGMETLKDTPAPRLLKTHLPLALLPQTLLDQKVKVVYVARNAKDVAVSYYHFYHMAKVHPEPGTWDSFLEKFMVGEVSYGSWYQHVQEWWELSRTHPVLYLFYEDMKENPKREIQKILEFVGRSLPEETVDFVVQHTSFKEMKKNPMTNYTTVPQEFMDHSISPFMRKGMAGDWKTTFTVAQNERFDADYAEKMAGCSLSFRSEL
Protocol: as §2
as §2, with “(47,50): V/Vax=(Ki+α·[I])/(Ki+[I]),” for “(25,28): v=kcat·(Ki+(1/kcat inh)·[I])/(Ki+[I]),”, “α” for “kcat inh”, “is percentage of” for “is”, “turnover remaining” for “turnover”

[4] = target: T2, SULT1E1 (Homo sapiens, UniProt P49888); assay: SULT1E1 inhibition test; type: biochemical; details: at 50 uM
T2 sequence (P49888 1-294): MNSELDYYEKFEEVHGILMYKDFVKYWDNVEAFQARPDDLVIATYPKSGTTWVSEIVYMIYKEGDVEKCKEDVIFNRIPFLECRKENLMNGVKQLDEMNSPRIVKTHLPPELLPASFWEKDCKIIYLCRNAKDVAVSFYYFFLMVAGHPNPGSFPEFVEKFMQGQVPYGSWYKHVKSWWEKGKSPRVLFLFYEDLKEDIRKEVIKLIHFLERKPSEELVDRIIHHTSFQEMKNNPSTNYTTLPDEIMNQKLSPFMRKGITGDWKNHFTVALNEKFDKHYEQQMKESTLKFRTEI

[5] = target: T3, SULT2A1 (Homo sapiens, UniProt Q06520); assay: SULT2A1 inhibition test; type: biochemical; details: at 50 uM
T3 sequence (Q06520 1-285): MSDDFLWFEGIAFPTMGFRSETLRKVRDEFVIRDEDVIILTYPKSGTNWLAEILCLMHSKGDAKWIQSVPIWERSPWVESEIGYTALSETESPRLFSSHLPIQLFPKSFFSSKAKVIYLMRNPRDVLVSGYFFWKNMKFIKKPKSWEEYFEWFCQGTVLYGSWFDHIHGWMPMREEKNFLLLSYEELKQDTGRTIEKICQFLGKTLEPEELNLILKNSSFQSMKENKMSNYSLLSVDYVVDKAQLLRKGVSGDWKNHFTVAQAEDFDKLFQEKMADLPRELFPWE

[6] = target: Green Monkey (1A3) (Chlorocebus sabaeus, UniProt Z9LO20H8W3); assay: Inhibition of SULT1A3 homologues in different species: Green Monkey; type: biochemical
Green Monkey (1A3), sequence (Z9LO20H8W3 1-295): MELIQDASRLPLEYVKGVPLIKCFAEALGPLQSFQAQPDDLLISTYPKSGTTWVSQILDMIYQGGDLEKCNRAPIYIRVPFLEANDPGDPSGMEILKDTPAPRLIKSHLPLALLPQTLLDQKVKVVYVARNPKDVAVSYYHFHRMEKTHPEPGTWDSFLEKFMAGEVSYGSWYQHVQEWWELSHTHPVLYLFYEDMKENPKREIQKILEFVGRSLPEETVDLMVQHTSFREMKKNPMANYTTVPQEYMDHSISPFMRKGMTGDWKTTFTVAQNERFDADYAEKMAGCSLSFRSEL
Protocol: (§3) Compounds 12, 23 and 25 were also tested for Inhibition of SULT1A3 in different species.
(§4) Inhibition of SULT1A3 Homologues in Different Species. SULT1A3 is only expressed in humans and higher primates. SULT1D1 is the isoform expressed in dogs and rodents that sulfonates neurotransmitters and is most similar to SULT1A3. Three synthesized allosteres (12, 23, and 25) were tested against both 1A3 and 1D1 from different species in order to explore testing in animal models. […] Mice have been engineered such that their SULT1A1/2 enzymes have been knocked out and replaced with the human versions of those isoforms.

[7] = target: Rhesus Macaque (1A3) (Macaca mulatta, UniProt A0A5F7ZQH3); assay: Inhibition of SULT1A3 homologues in different species: Rhesus Macaque; type: biochemical
Rhesus Macaque (1A3), sequence (A0A5F7ZQH3 1-295): as the sequence (Z9LO20H8W3 1-295) above, with A7T, V15M, C23Y, R230K, Y247F, A278E counted along it
Protocol: as §3, §4

[8] = target: Dog (1D1) (Canis lupus familiaris, UniProt A0A8I3RXJ1); assay: Inhibition of SULT1A3 homologues in different species: Dog; type: biochemical
Dog (1D1), sequence (A0A8I3RXJ1 entry or part of it): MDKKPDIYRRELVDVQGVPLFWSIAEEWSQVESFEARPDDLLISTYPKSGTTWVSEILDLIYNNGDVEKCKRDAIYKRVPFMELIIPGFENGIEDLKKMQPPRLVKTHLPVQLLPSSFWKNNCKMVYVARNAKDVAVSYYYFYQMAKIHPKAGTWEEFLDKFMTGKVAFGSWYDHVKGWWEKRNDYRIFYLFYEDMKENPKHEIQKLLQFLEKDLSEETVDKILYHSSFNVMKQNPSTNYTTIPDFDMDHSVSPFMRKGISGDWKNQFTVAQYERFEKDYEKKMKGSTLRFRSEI
Protocol: as §4, with “Compounds 12, 23 and 25 were also tested for Inhibition of SULT1A3 in different species. Inhibition” for “Inhibition”

[9] = target: Mouse (1D1) (Mus musculus, UniProt Q3UZZ6); assay: Inhibition of SULT1A3 homologues in different species: Mouse; type: biochemical
Mouse (1D1), sequence (Q3UZZ6 whole entry): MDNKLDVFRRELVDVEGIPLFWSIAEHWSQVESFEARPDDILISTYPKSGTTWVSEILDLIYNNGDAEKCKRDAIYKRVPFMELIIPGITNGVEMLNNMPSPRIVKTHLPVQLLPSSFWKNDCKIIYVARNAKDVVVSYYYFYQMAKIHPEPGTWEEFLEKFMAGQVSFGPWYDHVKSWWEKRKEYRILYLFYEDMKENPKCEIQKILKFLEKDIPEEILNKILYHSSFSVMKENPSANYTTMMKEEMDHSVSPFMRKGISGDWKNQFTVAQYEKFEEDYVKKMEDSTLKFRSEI
Protocol: as §3, §4

[10] = target: T4, Rat (1D1) (Rattus norvegicus, UniProt G3V9R3); assay: Inhibition of SULT1A3 homologues in different species: Rat; type: biochemical
T4 sequence (G3V9R3 1-295): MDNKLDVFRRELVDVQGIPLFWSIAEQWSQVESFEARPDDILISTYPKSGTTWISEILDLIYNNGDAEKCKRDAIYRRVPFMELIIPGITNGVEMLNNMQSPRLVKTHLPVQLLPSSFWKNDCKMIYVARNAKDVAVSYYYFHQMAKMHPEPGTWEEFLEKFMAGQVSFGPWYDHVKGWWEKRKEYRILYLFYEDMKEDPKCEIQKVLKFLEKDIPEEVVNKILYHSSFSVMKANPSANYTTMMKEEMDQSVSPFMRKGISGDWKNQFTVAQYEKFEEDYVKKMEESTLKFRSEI
Protocol: as §3, §4

[11] = read-out: Kd, determined by fluorescence titration

For `CC(C)c1ccc2cc(CO)ccc2n1` [Compound 1, (2-Isopropylquinolin-6-yl)methanol], the “inhibition of SULT1A3 (in words)” value [1] was “do not inhibit” and the Kd [2, 11] was 160 nM.

With `CC(C)Cc1ccc2cc(/C=C/C(N)=O)cnc2n1` [Compound 23, (E)-3-(7-Isobutylnaphthyridin-3-yl)acrylamide] the Ki [3] was 3.1 µM, the inhibition ([3]; read-out: SULT1A1 Enzyme Inhibition at Saturation/%) was 61% and the “inhibition of SULT1E1” value [4] was “no inhibition was detected”. The “inhibition of SULT2A1” value [5] was “no inhibition was detected”, the “Green Monkey (1A3) % inh” value [6] was 91 (4) % and the Ki ([6]; parentheses one standard error) was 72 nM. For the same molecule, the “Rhesus Macaque (1A3) % inh” value [7] was 97 (2) %, the Ki ([7]; parentheses one standard error) was 12 nM and the “Dog (1D1) % inh” value [8] was 81 (4) %. For the same molecule, the Ki ([8]; standard error in neighbouring cell) was 117 nM, the “Mouse (1D1) % inh” value [9] was 92 (3) % and the Ki ([9]; parentheses one standard error) was 65 nM. For the same molecule, the “Rat (1D1) % inh” value [10] was 37 (4) %, the Ki ([10]; parentheses one standard error) was 270 nM and the “affinity for SULT1A3 (in words)” value [1] was “low nanomolar affinity”. The Ki ([1]; ND = inhibition was not detected at 30 μM compound, parentheses one standard error, read-out: SULT1A3 Ki/μM) was 0.0092 µM, the “Human (1A3) % inh” value ([1]; parentheses one standard error) was 97 (2) % and the inhibition ([1]; parentheses one standard error, read-out: SULT1A3 Enzyme Inhibition at Saturation/%) was 96%. The Ki ([1]; standard error in neighbouring cell, read-out: Human (1A3) Ki) was 0.0096 µM and the inhibition at saturation ([1]; text b218) was “almost complete inhibition”.

In the case of `CC(C)CCc1ccc2cc(CO)ccc2n1` [Compound 2], the “inhibition of SULT1A3 (in words)” value [1] is reported as “do not inhibit” and the Kd [2, 11] is reported as 87 nM.

With `O=S(=O)(O)Oc1ccc2ccc3cccc4ccc1c2c34` [Compound 1-HP-S, reference compound] the Kd ([2]; read-out: Kd, affinity of 1-HP-S for SULT1A3) was 240000 ± 30000 nM.

Work on “4-Hydroxytamoxifen [Compound 4-Tam, reference compound]” yielded a Kd ([2]; saturating PAP 0.50 mM, SULT 150 nM, read-out: Kd (+PAP)) of 5400 nM.
